Consider 15 substances from patent US20120190564A1, “IDENTIFICATION OF PROTEIN BINDING SITES” (priority 2000, published 2012).

Ends that are not written are not given here. * marks the point of attachment. code + = amino-terminal bromo-group; nBu = CCCC*

This test relates to anti-hTNF mAb 210. In words: Loop-loop 15-mer Matrix-scan of hTNF loop-peptides with mAb 210. The test is classed as binding. The settings on record: mAb 210 10 ug/ml. The source says: FIG. 11: Partial listing of peptides synthesized for loop-loop 15-mer Matrix-scan (1. +AVRSSSRTPSDKPVZ (SEQ ID NO: 3); 2. +VRSSSRTPSDKPVAZ (SEQ ID NO: 4); 3. +RSSSRTPSDKPVAHZ (SEQ ID NO: 5); 4. +SSSRTPSDKPVAHVZ (SEQ ID NO: 6); 5. +SSRTPSDKPVAHVVZ (SEQ ID NO: 7); 145. +FAESGQVYFGIIALZ (SEQ ID NO: 8)). All overlapping 15-mer loop-peptides covering the linear sequence of human tumor necrosis factor (hTNF) were synthesized, i.e., 145 hTNF loop-peptides in total. Z is a Cys-butyl. The amino terminus of all peptides contain a bromo-group (+).
FIG. 12: Configuration of the loop-loop 15-mer Matrix-scan. Schematic representation of matrix-scan with two loop segments. On the polymer surface, a mixture of cys (mmt) and cys (trt) are coupled. After 1% TFA, the cys (mmt) is deprotected. Then, in each square, one peptide is coupled via its N-terminal Bromo-group (+). Thus, peptide-1 in square-1, peptide-2 in square-2, etc., until peptide-145 in square-145. Then, the cys(trt) is deprotected with 95% TFA. Then, in each square, 145 different peptides are spotted simultaneously. Thus, peptide-1 to 145 in square-1, peptide 1-145 in square-2, etc., to peptide-1 to peptide-145 in square-145. Some extra squares were used for controls (linear epitopes).
FIG. 13: Result of the loop-loop 15-mer Matrix-scan with anti-hTNF mAb 210 (10 ug/ml). The result obtained with all 145 squares is plotted. […] On top of these and other squares spots are labeled as well (spots represent first peptide coupled next to second loop peptide). Identified squares and spots: Sq-65: +FKGQGCPSTHVLLTZ (SEQ ID NO: 9); Sq-66: +KGQGCPSTHVLLTHZ (SEQ ID NO: 10); Sq-67: +GQGCPSTHVLLTHTZ (SEQ ID NO: 11); Sq-87: +SYQTKVNLLSAIKSZ (SEQ ID NO: 12); Sq-88: +YQTKVNLLSAIKSPZ (SEQ ID NO: 13); Sq-94: +LLSAIKSPCQRETPZ (SEQ ID NO: 14); Sq-95: +LSAIKSPCQRETPEZ (SEQ ID NO: 15); Sq-127: +LEKGDRLSAEINRPZ (SEQ ID NO: 16); Sq-128: +EKGDRLSAEINRPDZ (SEQ ID NO: 17); Peptide-65: +FKGQGCPSTHVLLTZ (SEQ ID NO: 18); Peptide-70: +CPSTHVLLTHTISRZ (SEQ ID NO: 19); Peptide-72: +STHVLLTHTISRIAZ (SEQ ID NO: 20); Peptide-77: +LTHTISRIAVSYQTZ (SEQ ID NO: 21); Peptide-94: +LLSAIKSPCQRETPZ (SEQ ID NO: 22); Peptide-95: +LSAIKSPCQRETPEZ (SEQ ID NO: 23); Peptide-99: +KSPCQRETPEGAEAZ (SEQ ID NO: 24); Peptide-126: +QLEKGDRLSAEINRZ (SEQ ID NO: 25); Peptide-129: +KGDRLSAEINRPDYZ (SEQ ID NO: 26). The y-axis is in arbitrary units.
FIG. 14: Result of the loop-loop 15-mer Matrix-scan with mAb 210 (10 ug/m) with details of squares 65 and 127. Combination of loop-peptide 65 with loop-peptides 94, 95, combinations of loop-peptide 65 with 126-127, combinations of loop-peptide 127 with loop-peptides 65-77 and combinations of loop-peptide 127 with loop-peptides 94-96 are labeled. The y-axis is in arbitrary units.
The monoclonal antibody mAb-210 raised against hTNF was tested on linear and loop peptides (mAb-210 was bought from R&D Systems, MAB210, clone 1825.12, through ITK Diagnostics Uithoorn, The Netherlands). Firstly, it was tested in Pepscan on all overlapping linear 12-mers covering hTNF. […] Secondly, it was tested in Pepscan matrix-scan on double 15-mer loop-loop peptides (as described in FIGS. 3 and 4 and explained through FIGS. 11-12). Two loop-regions were labeled: peptide sequence GQGCPSTHVLLT (SEQ ID NO: 65) (squares 65 to 67) and SAIKSPCQRE (SEQ ID NO: 28) (squares 92 to 96) (FIGS. 13, 14). In addition in various squares loop peptide spots were identified corresponding to sequence GQGCPSTHVLLT (SEQ ID NO: 65) (spots 65-67); SAIKSPCQRE (SEQ ID NO: 28) (spots 92-96) and KGDRLSAEINR (SEQ ID NO: 29) (spots 126-129) (FIG. 14). These three regions, illustrated in FIG. 15 on the three-dimensional model of hTNF, are located on one side of the hTNF molecule and form one large discontinuous epitope region.
For the substance “+YQTKVNLLSAIKSPZ ({code +}-YQTKVNLLSAIKSPX; not fully specified (residue 15); printed as +YQTKVNLLSAIKSPZ; also: N- and C-terminal linker/cyclisation residues) [Sq-88, 15-mer hTNF loop-peptide]”, the “labeling of squares (firstly coupled loop-peptides)” value (“labeling of squares” for short) is listed as “Identified”.
For “+GQGCPSTHVLLTHTZ ({code +}-GQGCPSTHVLLTHTX; not fully specified (residue 15); printed as +GQGCPSTHVLLTHTZ; also: N- and C-terminal linker/cyclisation residues) [Sq-67, 15-mer hTNF loop-peptide]”, the “labeling of squares” value is listed as “clearly labeled”.
In the case of GQGCPSTHVLLTHTIS (Human), the “labeling of spots (first peptide coupled next to second loop peptide)” value (from here on “labeling of spots”) is “identified”.
On to KGDRLSAEINR (Human), for which the “labeling of spots” value is reported as “identified”.
On to “+LSAIKSPCQRETPEZ ({code +}-LSAIKSPCQRETPEC(nBu)) [Peptide-95, 15-mer hTNF loop-peptide]”, for which the “labeling of spots” value is reported as “Identified” and the “labeling of squares” value is on record as “Identified”.
As for “+EKGDRLSAEINRPDZ ({code +}-EKGDRLSAEINRPDX; not fully specified (residue 15); printed as +EKGDRLSAEINRPDZ; also: N- and C-terminal linker/cyclisation residues) [Sq-128, 15-mer hTNF loop-peptide]”, the “labeling of squares” value is “Identified”.
“+LTHTISRIAVSYQTZ ({code +}-LTHTISRIAVSYQTX; not fully specified (residue 15); printed as +LTHTISRIAVSYQTZ; also: N- and C-terminal linker/cyclisation residues) [Peptide-77, 15-mer hTNF loop-peptide]”: the “labeling of spots” value is on record as “Identified”.
Turning to “+LLSAIKSPCQRETPZ ({code +}-LLSAIKSPCQRETPC(nBu)) [Peptide-94, 15-mer hTNF loop-peptide]”, the “labeling of spots” value is recorded as “Identified” and the “labeling of squares” value is reported as “Identified”.
“+CPSTHVLLTHTISRZ ({code +}-CPSTHVLLTHTISRC(nBu)) [Peptide-70, 15-mer hTNF loop-peptide]”: the “labeling of spots” value is listed as “Identified”.
For the substance “+KSPCQRETPEGAEAZ ({code +}-KSPCQRETPEGAEAX; not fully specified (residue 15); printed as +KSPCQRETPEGAEAZ; also: N- and C-terminal linker/cyclisation residues) [Peptide-99, 15-mer hTNF loop-peptide]”, the “labeling of spots” value is listed as “Identified”.
Same read-out and setting: as for “+KGDRLSAEINRPDYZ ({code +}-KGDRLSAEINRPDYC(nBu)) [Peptide-129, 15-mer hTNF loop-peptide]”, the entry is “Identified”.
On to GQGCPSTHVLLT (Human), for which the “labeling of spots” value is recorded as “identified” and the “labeling of squares” value is “labeled”.
With “+FKGQGCPSTHVLLTZ ({code +}-FKGQGCPSTHVLLTC(nBu)) [Peptide-65, 15-mer hTNF loop-peptide]”, the “labeling of spots” value is reported as “Identified” and the “labeling of squares” value was “Identified”.
With SAIKSPCQRE (Human), the “labeling of spots” value is “identified” and the “labeling of squares” value is reported as “labeled”.
As to “+LEKGDRLSAEINRPZ ({code +}-LEKGDRLSAEINRPX; not fully specified (residue 15); printed as +LEKGDRLSAEINRPZ; also: N- and C-terminal linker/cyclisation residues) [Sq-127, 15-mer hTNF loop-peptide]”, the “labeling of squares” value is recorded as “Identified”.
